Each block holds one compound with its values, some of them ahead of it. Active and inactive are the calls of the source. The calls are words filed in the database; no cut-off is given here.
Key:
HCT-116 [1] = assay: Induction of apoptosis in human HCT-116 cells assessed as cleaved PARP at 0.1 to 10 uM incubated for 24 hrs by Western blot analysis; assay type: functional, cell-based; conditions: dose 0.1-10 µM
[2] = Toxicity in Balb/c mouse xenografted with human MDA-MB-231 cells assessed as change in body weight at 40 to 70 mg/kg, po once daily measured for 16 days; assay type: organism-based; conditions: in vivo, 384 h, dose 40-70 mg/kg, time 16 day
CYP3A4 = CYP3A4 (Homo sapiens, UniProt P08684); assay: Inhibition of CYP3A4 (unknown origin) at 10 uM relative to control; assay type: ADME
Chain of CYP3A4 (P08684 whole entry): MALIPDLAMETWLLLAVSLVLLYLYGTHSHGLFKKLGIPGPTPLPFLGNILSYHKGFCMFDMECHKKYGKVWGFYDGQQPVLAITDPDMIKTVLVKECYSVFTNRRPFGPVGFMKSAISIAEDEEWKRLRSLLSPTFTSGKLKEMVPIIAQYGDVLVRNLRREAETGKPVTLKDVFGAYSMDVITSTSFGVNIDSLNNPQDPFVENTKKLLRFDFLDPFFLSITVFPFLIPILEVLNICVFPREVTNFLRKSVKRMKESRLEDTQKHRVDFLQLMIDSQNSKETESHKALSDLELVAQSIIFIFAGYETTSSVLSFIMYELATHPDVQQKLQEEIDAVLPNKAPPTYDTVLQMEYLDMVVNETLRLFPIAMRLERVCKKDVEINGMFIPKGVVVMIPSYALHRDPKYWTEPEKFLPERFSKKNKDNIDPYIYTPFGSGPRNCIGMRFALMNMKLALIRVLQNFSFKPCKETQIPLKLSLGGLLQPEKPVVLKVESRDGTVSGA

MDA-MB-231 [3] = assay: Induction of apoptosis in human MDA-MB-231 cells assessed as cleaved caspase-3 at 0.1 to 10 uM incubated for 24 hrs by Western blot analysis; assay type: functional, cell-based; conditions: dose 0.1-10 µM
[4] = biological target: T1, Mitogen-activated protein kinase; ERK1/ERK2 (Homo sapiens) (UniProt P27361+P28482); assay: Inhibition of ERK1/2 autophosphorylation in human HCT-116 cells at 0.5 to 5 uM incubated for 24 hrs by Western blot analysis; assay type: cell-based; conditions: dose 0.5-5 µM
T1 sequence (P27361 whole entry, looked up): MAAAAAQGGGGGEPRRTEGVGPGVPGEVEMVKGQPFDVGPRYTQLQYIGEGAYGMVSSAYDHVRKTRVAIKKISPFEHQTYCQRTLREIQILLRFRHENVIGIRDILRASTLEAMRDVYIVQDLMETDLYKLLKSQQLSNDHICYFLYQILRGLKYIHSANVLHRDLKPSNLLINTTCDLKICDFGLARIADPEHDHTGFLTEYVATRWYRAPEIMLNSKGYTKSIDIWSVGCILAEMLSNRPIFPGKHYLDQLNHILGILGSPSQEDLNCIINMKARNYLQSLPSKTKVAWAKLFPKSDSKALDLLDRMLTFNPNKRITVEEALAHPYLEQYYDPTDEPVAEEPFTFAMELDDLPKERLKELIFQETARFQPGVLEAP
T1 sequence (P28482 whole entry, looked up): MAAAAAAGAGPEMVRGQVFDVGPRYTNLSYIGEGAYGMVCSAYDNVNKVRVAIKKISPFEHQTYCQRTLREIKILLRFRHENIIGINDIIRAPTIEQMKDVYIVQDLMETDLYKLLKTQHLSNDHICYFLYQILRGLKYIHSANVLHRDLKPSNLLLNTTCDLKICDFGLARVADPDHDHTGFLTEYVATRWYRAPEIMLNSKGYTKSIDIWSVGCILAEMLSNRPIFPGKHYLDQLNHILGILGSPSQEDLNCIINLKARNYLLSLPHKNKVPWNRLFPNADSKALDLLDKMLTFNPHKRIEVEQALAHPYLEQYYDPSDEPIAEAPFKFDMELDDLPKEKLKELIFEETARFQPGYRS

[5] = Antiproliferative activity against human A375P cells assessed as growth inhibition measured after 72 hrs by CellTiter-Glo assay; assay type: functional; conditions: Homo sapiens, A375P
MDA-MB-231 [6] = assay: Induction of apoptosis in human MDA-MB-231 cells assessed as cleaved PARP at 0.1 to 10 uM incubated for 24 hrs by Western blot analysis; assay type: functional, cell-based; conditions: dose 0.1-10 µM
MDA-MB-231 [7] = assay: Antitumor activity against human MDA-MB-231 cells xenografted in Balb/c mouse assessed as decrease in ki67 at 40 to 70 mg/kg, po once daily measured for 16 days by Immunohistochemical analysis; assay type: functional, organism-based; conditions: dose 40-70 mg/kg, time 16.0 day
HCT-116 [8] = assay: Antiproliferative activity against human HCT-116 cells assessed as growth inhibition measured after 72 hrs by CellTiter-Glo assay; assay type: functional; conditions: Homo sapiens, HCT-116
HCT-116 [9] = assay: Induction of apoptosis in human HCT-116 cells assessed as cleaved caspase-3 at 0.1 to 10 uM incubated for 24 hrs by Western blot analysis; assay type: functional, cell-based; conditions: dose 0.1-10 µM
MDA-MB-231 [10] = assay: In vivo antitumor activity against human MDA-MB-231 cells xenografted in Balb/c mouse assessed as tumor volume at 70 mg/kg, po once daily measured for 16 days (reference value: 600 mm^3); assay type: functional; conditions: time 16.0 day
MDA-MB-231 [11] = assay: Antiproliferative activity against human MDA-MB-231 cells assessed as growth inhibition measured after 72 hrs by CellTiter-Glo assay; assay type: functional; conditions: Homo sapiens, MDA-MB-231
MDA-MB-231 [12] = assay: In vivo antitumor activity against human MDA-MB-231 cells xenografted in Balb/c mouse assessed as reduction in tumor weight at 40 to 70 mg/kg, po once daily measured for 16 days; assay type: functional, organism-based; conditions: dose 40-70 mg/kg, time 16.0 day
CYP2D6 = CYP2D6 (Homo sapiens, UniProt P10635); assay: Inhibition of CYP2D6 (unknown origin) at 10 uM relative to control; assay type: ADME
Chain of CYP2D6 (P10635 whole entry): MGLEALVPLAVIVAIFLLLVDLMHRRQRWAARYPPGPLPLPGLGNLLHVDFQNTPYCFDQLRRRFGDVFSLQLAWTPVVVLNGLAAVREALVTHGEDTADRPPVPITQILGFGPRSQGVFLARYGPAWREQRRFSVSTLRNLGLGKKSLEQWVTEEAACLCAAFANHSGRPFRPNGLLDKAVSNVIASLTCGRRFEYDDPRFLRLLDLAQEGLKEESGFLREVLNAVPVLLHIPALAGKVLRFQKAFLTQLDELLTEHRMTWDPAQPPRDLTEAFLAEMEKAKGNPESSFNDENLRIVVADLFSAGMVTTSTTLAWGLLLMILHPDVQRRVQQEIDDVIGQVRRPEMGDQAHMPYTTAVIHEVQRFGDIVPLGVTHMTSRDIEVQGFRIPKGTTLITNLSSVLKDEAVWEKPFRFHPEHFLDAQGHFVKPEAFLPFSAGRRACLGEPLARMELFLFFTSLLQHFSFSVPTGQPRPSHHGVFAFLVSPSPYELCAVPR

MDA-MB-231 [13] = assay: Growth inhibition of anchorage-Independent human MDA-MB-231 cells assessed as decrease in number of colonies incubated for 72 hrs by MTT assay; assay type: functional, cell-based; conditions: dose 1-10 µM
MDA-MB-231 [14] = assay: Antimetastatic activity against human MDA-MB-231 cells expressing firefly luciferase xenografted NSG orthotopic mouse model assessed as reduction in luminescence intensity at chest region at 70 mg/kg, po once daily measured for 2 weeks; assay type: functional, organism-based
MDA-MB-231 [15] = assay: In vivo antitumor activity against human MDA-MB-231 cells xenografted in Balb/c mouse assessed as reduction in tumor mass at 40 to 70 mg/kg, po once daily measured for 16 days; assay type: functional, organism-based; conditions: dose 40-70 mg/kg, time 16.0 day
CYP1A2 = biological target: T2, CYP1A2 (Homo sapiens, UniProt P05177); assay: Inhibition of CYP1A2 (unknown origin) at 10 uM relative to control; assay type: ADME
T2 sequence (P05177 whole entry): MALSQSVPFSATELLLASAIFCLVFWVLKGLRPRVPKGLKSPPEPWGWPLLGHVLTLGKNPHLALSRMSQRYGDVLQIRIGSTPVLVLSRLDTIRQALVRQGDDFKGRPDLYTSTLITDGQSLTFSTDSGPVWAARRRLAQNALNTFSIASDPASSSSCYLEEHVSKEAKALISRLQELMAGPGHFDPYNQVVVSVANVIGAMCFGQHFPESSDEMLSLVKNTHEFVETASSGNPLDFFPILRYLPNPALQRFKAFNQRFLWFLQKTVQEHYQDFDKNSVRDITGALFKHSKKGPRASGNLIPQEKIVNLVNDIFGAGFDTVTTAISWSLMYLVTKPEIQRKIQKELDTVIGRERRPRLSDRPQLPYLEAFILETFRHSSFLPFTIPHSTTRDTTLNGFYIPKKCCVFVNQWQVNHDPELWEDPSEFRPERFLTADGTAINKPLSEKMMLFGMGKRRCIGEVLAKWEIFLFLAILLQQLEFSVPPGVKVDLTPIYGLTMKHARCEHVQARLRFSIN

MDA-MB-231 [16] = assay: In vivo antitumor activity against human MDA-MB-231 cells xenografted in Balb/c mouse assessed as tumor volume at 40 mg/kg, po once daily measured for 16 days (reference value: 600 mm^3); assay type: functional; conditions: time 16.0 day
MDA-MB-231 [17] = assay: Induction of apoptosis in human MDA-MB-231 cells assessed apoptotic cell death at 10 uM incubated for 24 hrs by Annexin-V/PI analysis; assay type: functional, cell-based
[18] = biological target: T1, Mitogen-activated protein kinase; ERK1/ERK2 (Homo sapiens); assay: Inhibition of ERK1/2 autophosphorylation in human MDA-MB-231 cells at 0.5 to 5 uM incubated for 24 hrs by Western blot analysis; assay type: cell-based; conditions: dose 0.5-5 µM
CYP2C9 = CYP2C9 (Homo sapiens, UniProt P11712); assay: Inhibition of CYP2C9 (unknown origin) at 10 uM relative to control; assay type: ADME
Chain of CYP2C9 (P11712 whole entry): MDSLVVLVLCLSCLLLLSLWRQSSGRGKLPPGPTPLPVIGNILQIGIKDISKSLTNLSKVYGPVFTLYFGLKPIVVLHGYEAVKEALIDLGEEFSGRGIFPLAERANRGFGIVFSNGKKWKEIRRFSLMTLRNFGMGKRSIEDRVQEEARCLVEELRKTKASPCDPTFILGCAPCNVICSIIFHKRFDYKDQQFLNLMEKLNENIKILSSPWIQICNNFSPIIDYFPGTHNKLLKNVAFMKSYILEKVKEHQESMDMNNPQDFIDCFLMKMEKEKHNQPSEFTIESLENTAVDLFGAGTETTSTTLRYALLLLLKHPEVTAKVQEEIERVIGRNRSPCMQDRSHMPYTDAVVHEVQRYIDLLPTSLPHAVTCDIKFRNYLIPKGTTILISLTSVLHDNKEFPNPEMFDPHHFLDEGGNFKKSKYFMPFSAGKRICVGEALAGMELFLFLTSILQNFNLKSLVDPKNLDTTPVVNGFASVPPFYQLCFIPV

BaF3 [19] = assay: Antiproliferative activity against mouse Ba/F3 cells harbouring FLT3 D835Y mutant assessed as growth inhibition measured after 72 hrs by CellTiter-Glo assay; assay type: functional; conditions: Mus musculus, BaF3
BaF3 [20] = assay: Antiproliferative activity against mouse Ba/F3 cells harbouring FLT3 ITD F691L mutant assessed as growth inhibition measured after 72 hrs by CellTiter-Glo assay; assay type: functional; conditions: Mus musculus, BaF3
BaF3 [21] = assay: Antiproliferative activity against mouse Ba/F3 cells harbouring FLT3 ITD D835Y mutant assessed as growth inhibition measured after 72 hrs by CellTiter-Glo assay; assay type: functional; conditions: Mus musculus, BaF3
MV4-11 = assay: In vivo antitumor activity against human MV4-11 cells xenografted in mouse assessed as tumor weight at 20 mg/kg, po relative to control; assay type: functional, organism-based
BaF3 [22] = assay: Antiproliferative activity against mouse Ba/F3 cells harbouring FLT3 ITD F691I mutant assessed as growth inhibition measured after 72 hrs by CellTiter-Glo assay; assay type: functional; conditions: Mus musculus, BaF3
BaF3 [23] = assay: Antiproliferative activity against mouse Ba/F3 cells assessed as growth inhibition measured after 72 hrs by CellTiter-Glo assay; assay type: functional; conditions: Mus musculus, BaF3
BaF3 [24] = assay: Antiproliferative activity against mouse Ba/F3 cells harbouring FLT3 ITD mutant assessed as growth inhibition measured after 72 hrs by CellTiter-Glo assay; assay type: functional; conditions: Mus musculus, BaF3

inhibition at 10 µM (CYP3A4): 47.2% | inhibition [4]: inactive | GI50 (HCT-116 [8]): 1140 nM | GI50 (MDA-MB-231 [11]): 1950 nM | inhibition at 10 µM (CYP2D6): 90.5% | inhibition at 10 µM (CYP1A2): 91.2% | inhibition [18]: inactive | inhibition at 10 µM (CYP2C9): 42.7%
SMILES: CN(c1ncccc1CNc1nc(Nc2ccc3c(c2)CC(=O)N3)ncc1C(F)(F)F)S(C)(=O)=O [PF-00562271]
Activity (HCT-116 [1]): Active | Activity [2]: Non-Toxic | Activity (MDA-MB-231 [3]): Active | GI50 [5]: 10.2 µM | Activity (MDA-MB-231 [6]): Active | Activity (MDA-MB-231 [7]): Active | Activity (HCT-116 [9]): Active | Activity (MDA-MB-231 [10]): Active | Activity (MDA-MB-231 [12]): Active | growth inhibition (GI) (MDA-MB-231 [13]): Active | Activity (MDA-MB-231 [14]): Active | Activity (MDA-MB-231 [15]): Active | Activity (MDA-MB-231 [16]): Active | Activity (MDA-MB-231 [17]): Active

GI50 (BaF3 [19]): 56.5 nM | GI50 (BaF3 [20]): 1540 nM | GI50 (BaF3 [21]): 206 nM | GI50 (BaF3 [22]): 2640 nM | GI50 (BaF3 [23]): 5.42 µM | GI50 (BaF3 [24]): 2.8 nM
SMILES: CNC(=O)c1cc(Oc2ccc(NC(=O)Nc3ccc(Cl)c(C(F)(F)F)c3)cc2)ccn1 [SORAFENIB]
Activity (MV4-11): Active

Source: ChEMBL document CHEMBL4837239, “Identification of Thieno[3,2-d]pyrimidine Derivatives as Dual Inhibitors of Focal Adhesion Kinase and FMS-like Tyrosine Kinase 3” (J Med Chem, 2021)
